Converted amounts (≈) assume the structure as drawn. Structures can show the parent of a compound that is named as a salt.
Key:
Assay type in all cases: physicochemical
[1] = Mechanical stability, manual grinding for 5 minutes in mortar, XRPD; conditions: ground manually for 5 minutes, XRPD before and after
Method: Solid samples of Form CS3, Form CS5, Form CS6 of ozanimod and Form CS1 of ozanimod hydrochloride were ground manually for 5 minutes in mortar.

[2] = Stability assessment in constant temperature and humidity chambers (HPLC purity, XRPD crystalline form); conditions: for 1 week purity % / 2 week purity % / 4 week purity %: HPLC; for 2 week purity %: 2 weeks; for Change of the crystalline form: XRPD; for Stability, overall conclusion of the storage test: after storage under all conditions tested for the form
Method: (§1) Three solid samples of Form CS1 were placed in constant temperature and humidity chambers at 25° C./60% RH, 40° C./75% RH and 60° C./75% RH for 4 weeks. XRPD was used to test the crystalline form at the end of week 4. HPLC was used to measure the chemical purity at the end of week 1, 2, and 4. The XRPD comparison result is shown in FIG. 31 (from top to bottom: XRPD pattern of Form CS1 before and after being stored under 25° C./60% RH, 40° C./75% RH and 60° C./75% RH for 4 weeks), and the results are shown in Table 20.
as §1, with “Four” for “Three”, “CS2” for “CS1”, “weeks and 80° C. for 1 week.” for “weeks.”, “32” for “31”, “weeks and 80° C. for 1 week),” for “weeks),”, “21.” for “20.”
as §1, with “Form CS3” for “Form CS1”, “comparison pattern” for “comparison result”, “FIG. 33” for “FIG. 31”, “Table 22.” for “Table 20.”
as §1, with “Form CS5” for “Form CS1”, “for 2” for “for 4”, “[…].” for “4. HPLC was used to measure the chemical purity at the end of week 1, 2, and 4.”, “comparison pattern” for “comparison result”, “FIG. 34” for “FIG. 31”, “Table 23.” for “Table 20.”
Two samples of Form CS6 were placed in constant temperature and humidity chambers at 25° C./60% RH and 40° C./75% RH for 4 weeks. XRPD was used to test the crystalline form at the end of week 4. HPLC was used to measure the chemical purity at the end of week 1, 2, and 4.The XRPD comparison result is shown in FIG. 35 (from top to bottom: XRPD pattern of Form CS6 before and after being stored under 25° C./60% RH and 40° C./75% RH for 4 weeks), and the results are shown in Table 24.
Four samples of Form CS1 of ozanimod hydrochloride were placed in constant temperature and humidity chambers at 25° C./60% RH, 40° C./75% RH and 60° C./75% RH for 4 weeks and 80° C. for 1 week. XRPD was used to test the crystalline form at the end of week 4. HPLC was used to measure the chemical purity at the end of week 1, 2, and 4. The XRPD comparison pattern is shown in FIG. 36 (from top to bottom: XRPD pattern of ozanimod hydrochloride Form CS1 before and after being stored under 25° C./60% RH, 40° C./75% RH and 60° C./75% RH for 4 weeks and 80° C. for 1 week), and the results are shown in Table 25.

[3] = Particle size distribution test (laser particle size analyzer, wet process); conditions: for MV, average particle size calculated by volume: dispersion medium Isopar G; for D10 / D50 (median diameter) / D90: volume distribution, Isopar G
Method: The particle size distribution test in the present disclosure is acquired by the S3500 laser particle size analyzer of Microtrac. Microtrac S3500 is equipped with the SDC (Sample Delivery Controller). The test is carried out by wet process, and the dispersion medium is Isopar G The parameters are as follow:
Certain amount of samples of Form CS1, Form CS2, Form CS3, Form CS5, Form CS6 of ozanimod and Form CS1 of ozanimod hydrochloride were taken for particle size distribution test.

[4] = Hygroscopicity assessment by dynamic vapor sorption (DVS); conditions: for Hygroscopicity class according to the definition of hygroscopicity: Chinese Pharmacopoeia 2015, 25° C., 80% RH; for Weight gain under 80% RH: DVS, 25° C.
Method: Dynamic Vapor Sorption (DVS) is measured via an SMS (Surface Measurement Systems Ltd.) intrinsic DVS. Typical Parameters for DVS test are as follows:
Gas and flow rate: N2, 200 mL/min
RH range: 0% RH to 95% RH […]
Dynamic vapor sorption (DVS) was applied to test hygroscopicity of Form CS1 of ozanimod hydrochloride with about 10 mg of samples.
Description and definition of hygroscopicity (Chinese Pharmacopoeia 2015 edition appendix Drug hygroscopic test guidelines, test at 25° C.+/−1° C., 80% RH). • deliquescent: Sufficient water is absorbed to form a liquid; • very hygroscopic: Increase in mass is equal to or greater than 15 percent; • hygroscopic: Increase in mass is less than 15 percent and equal to or greater than 2 percent; • slightly hygroscopic: Increase in mass is less than 2 percent and equal to or greater than 0.2 percent. • non hygroscopic or almost non hygroscopic: Increase in mass is less than 0.2 percent.

[5] = Solubility assessment of saturated solutions in SGF, FeSSIF and water, measured by HPLC
Method: Form CS1 and Form CS1 of ozanimod hydrochloride were suspended into SGF (Simulated gastric fluids) and FeSSIF (Fed state simulated intestinal fluids, pH=5.0) to obtain saturated solutions. After being equilibrated for 1 h, 4 h and 24 h, concentrations of the saturated solutions were measured by HPLC.
Form CS3 and Form CS5 were suspended into SGF (Simulated gastric fluids) and water, and Form CS2 was suspended into FeSSIF (Fed state simulated intestinal fluids) to obtain saturated solutions. After being equilibrated for 1 h, 4 h and 24 h, concentrations of the saturated solutions were measured by HPLC.

Form change under mechanical stress [1]	Change of the crystalline form ([2]; 25° C./60% RH, 4 weeks)	Change of the crystalline form ([2]; 40° C./75% RH, 4 weeks)	Change of the crystalline form ([2]; 60° C./75% RH, 4 weeks)	Change of the crystalline form ([2]; 80° C., 1 week)	Stability, overall conclusion of the storage test [2]	1 week purity % ([2]; 25° C./60% RH, 1 week) [%]	2 week purity % ([2]; 25° C./60% RH) [%]	4 week purity % ([2]; 25° C./60% RH, 4 weeks) [%]	1 week purity % ([2]; 40° C./75% RH, 1 week) [%]	2 week purity % ([2]; 40° C./75% RH) [%]	4 week purity % ([2]; 40° C./75% RH, 4 weeks) [%]	1 week purity % ([2]; 60° C./75% RH, 1 week) [%]	2 week purity % ([2]; 60° C./75% RH) [%]	MV, average particle size calculated by volume [3] [μm]	D10 [3] [μm]	D50 (median diameter) [3] [μm]	D90 [3] [μm]	Weight gain under 80% RH [4] [%]	SMILES	Hygroscopicity class according to the definition of hygroscopicity [4]	further results
No form change	No change	No change	No change	No change	good stability														CC(C)Oc1ccc(-c2nc(-c3cccc4c3CC[C@@H]4NCCO)no2)cc1C#N [Form CS1 of ozanimod hydrochloride, ozanimod hydrochloride]	slightly hygroscopic (Increase in mass is less than 2 percent and equal to or greater than 0.2 percent)	1 week purity % ([2]; 25° C./60% RH, 1 week, hydrochloride): 99.18%; 2 week purity % ([2]; 25° C./60% RH, hydrochloride): 99.13%; 4 week purity % ([2]; 25° C./60% RH, 4 weeks, hydrochloride): 99.22%; 1 week purity % ([2]; 40° C./75% RH, 1 week, hydrochloride): 99.15%; 2 week purity % ([2]; 40° C./75% RH, hydrochloride): 99.12%; 4 week purity % ([2]; 40° C./75% RH, 4 weeks, hydrochloride): 99.24%; 1 week purity % ([2]; 60° C./75% RH, 1 week, hydrochloride): 99.25%; 2 week purity % ([2]; 60° C./75% RH, hydrochloride): 99.25%; 4 week purity % ([2]; 60° C./75% RH, 4 weeks, hydrochloride): 99.36%; 1 week purity % ([2]; 80° C., 1 week, hydrochloride): 99.34%; MV, average particle size calculated by volume ([3]; hydrochloride): 200.7 μm; D10 ([3]; hydrochloride): 20.84 μm; D50 (median diameter) ([3]; hydrochloride): 180.8 μm; D90 ([3]; hydrochloride): 397.7 μm; Weight gain under 80% RH ([4]; hydrochloride): 0.55%; Weight gain under 80% RH ([4]; listed as ozanimod hydrochloride Form CS1, hydrochloride): 0.55%; Solubility ([5]; FeSSIF (pH=5.0), 4 h, hydrochloride): 1.5 mg/mL
	No change	No change	No change		good stability	99.12	99.18	98.97	99.16	99.17	98.92	99.26	99.13	22.40	3.15	11.20	48.90	0.36	CC(C)Oc1ccc(-c2nc(-c3cccc4c3CC[C@@H]4NCCO)no2)cc1C#N [Form CS1, ozanimod]	slightly hygroscopic (Increase in mass is less than 2 percent and equal to or greater than 0.2 percent)	4 week purity % ([2]; 60° C./75% RH, 4 weeks): 98.71%; Solubility ([5]; FeSSIF (pH=5.0), 1 h): 4.2 mg/mL (≈ 10.4 mM); Solubility ([5]; FeSSIF (pH=5.0), 4 h): 7.3 mg/mL (≈ 18 mM); Solubility ([5]; SGF, 1 h): 6.4 mg/mL (≈ 15.8 mM); Solubility ([5]; SGF, 4 h): 6.3 mg/mL (≈ 15.6 mM); Solubility ([5]; SGF, 24 h): 5.9 mg/mL (≈ 14.6 mM); solubility at 24 h ([5]; fed state simulated intestinal fluid (FeSSIF), pH 5, fessif, thermodynamic from solid, FeSSIF (pH=5.0), 24 h): 7.7 mg/mL (≈ 19 mM)
	No change	No change	No change	No change	good stability	99.85	99.63	99.62	99.84	99.78	99.55	99.91	99.60	23.24	5.78	14.20	42.35	0.25	CC(C)Oc1ccc(-c2nc(-c3cccc4c3CC[C@@H]4NCCO)no2)cc1C#N [Form CS2, ozanimod]	slightly hygroscopic (Increase in mass is less than 2 percent and equal to or greater than 0.2 percent)	4 week purity % ([2]; 60° C./75% RH, 4 weeks): 99.63%; 1 week purity % ([2]; 80° C., 1 week): 99.71%; Solubility ([5]; FeSSIF (pH=5.0), 1 h): 2.0 mg/mL (≈ 4.94 mM)
No form change	No change	No change			good stability	98.44	98.21	98.27	98.47	98.33	97.97			68.91	12.87	46.47	161.7	1.68	CC(C)Oc1ccc(-c2nc(-c3cccc4c3CC[C@@H]4NCCO)no2)cc1C#N [Form CS6, ozanimod]		

Source: patent US11680050B2, “Crystalline forms of ozanimod and ozanimod hydrochloride, and processes for preparation thereof” (RECEPTOS LLC, priority 2016, dated 2023)
